Laboratory results from patent US20160129034A1, “COMBINATION OF RO5503781, CAPECITABINE AND OXALIPLANTIN FOR CANCER THERAPY” (HOFFMANN-LA ROCHE INC., priority 2013, published 2016).

Tested on: LoVo cell line
Assay: LoVo colorectal xenograft in mice: tumor growth inhibition and survival
Assay type: in vivo
Conditions: for % Inhibition (EOS) / % T/C (EOS): end of study; for Mean Tumor Volume: in mm³ (unit assumed)
Description: The LoVo cell line was selected for implantation in mice as it is has activation of the p53-MDM2 pathway but lacks MDM2 amplification or overexpression, which therefore is felt to be more reflective of clinical reality of the colorectal cancer patient population of interest.
Compound A and the capecitabine/oxaliplatin formulations were as follows. If not explicitly indicated otherwise, the amounts provided below are concentrations [mg/ml]. Compound A is used at concentrations of 10 mg/ml and 12.5 mg/ml. Capecitabine is used at concentrations of 12.5 mg/ml, 25 mg/ml and 50 mg/ml. Oxaliplatin is dosed at 5 mg/kg. The vehicle solutions for compound A and capecitabine are as follows:
The following treatment groups were used in the study • 1. Vehicle Control qd×5 po+qd×14 po • 2. Compound A 80 mg/kg qd×5 po • 3. Compound A 100 mg/kg qweekly×3 po • 4. Capecitabine 200 mg/kg qd×14 po • 5. Oxaliplatin 5 mg/kg qweekly ip×2 • 6. Capecitabine 200 mg/kg qd×14po+Oxaliplatin 5 mg/kg qweekly ip×2 • 7. Compound A 80 mg/kg qd×5+Capecitabine 200 mg/kg qd×14 • 8. Compound A 100 mg/kg qweekly×3+Capecitabine 200 mg/kg qd×14 • 9. Compound A 80 mg/kg qd×5+Capecitabine 200 mg/kg qd×14+Oxaliplatin 5 mg/kg qweekly ip×2 • 10. Compound A 100 mg/kg qweekly×3+Capecitabine 200 mg/kg qd×14+Oxaliplatin 5 mg/kg qweekly ip×2

[1] = Oxaliplatin 5 mg/kg qweeklyx2 ip
[2] = Capecitabine 200 mg/kg qdx14 po

## O=C(O)C(=O)O.[NH-][C@@H]1CCCC[C@H]1[NH-].[Pt+2] [Oxaliplatin]
[1]
  % Increased Life Span: 0%
  % Inhibition (EOS): 23%
  % T/C (EOS): 77%
  Mean Tumor Volume: 130.60

## CCCCCOC(=O)Nc1nc(=O)n([C@@H]2O[C@H](C)[C@@H](O)[C@H]2O)cc1F [Capecitabine, 5′-deoxy-5-fluoro-N-[(pentyloxy)-carbonyl]-cytidine]
[2]
  % Increased Life Span: 36%
  % Inhibition (EOS): 75%
  % T/C (EOS): 25%
  Mean Tumor Volume: 129.07

## COc1cc(C(=O)O)ccc1NC(=O)[C@@H]1N[C@@H](CC(C)(C)C)[C@](C#N)(c2ccc(Cl)cc2F)[C@H]1c1cccc(Cl)c1F [Cpd. A, 4-{[(2R,3S,4R,5S)-4-(4-Chloro-2-fluoro-phenyl)-3-(3-chloro-2-fluoro-phenyl)-4-cyano-5-(2,2-dimethyl-propyl)-pyrrolidine-2-carbonyl]-amino}-3-methoxy-benzoic acid]
Cpd A 80 mg/kg qdx5 po
  % Increased Life Span: 21%
  % Inhibition (EOS): 64%
  % T/C (EOS): 38%
  Mean Tumor Volume: 130.73
Cpd A 100 mg/kg qwklyx3 po
  % Increased Life Span: 21%
  % Inhibition (EOS): 60%
  % T/C (EOS): 40%
  Mean Tumor Volume: 130.23
